Source: ChEMBL document CHEMBL1123701, “Synthesis and quantitative structure-activity relationship analysis of N-triiodoallyl- and N-iodopropargylazoles. New antifungal agents” (1987)
Converted amounts (≈) assume the structure as drawn.

What follows are compounds tested on Cryptococcus neoformans (assay: Antifungal activity against Cryptococcus neoformans Cr-1 strain).
Assay type: functional

Q: For `CC(=O)c1cccn1CC(I)=C(I)I`, which MIC is on record?
A: > 25 µg/mL

Q: Which MIC does the source give for `CCCc1nnnn1CC#CI` here?
A: 3.13 µg/mL (≈ 11.3 µM)

Q: Which MIC does the source give for `CCc1nnnn1CC(I)=C(I)I` here?
A: > 25 µg/mL

Q: `IC#CCn1ccnn1` was tested. Which MIC did it give?
A: 1.56 µg/mL (≈ 6.69 µM)

Q: `CCOC(=O)c1cn(CC(I)=C(I)I)c(Cl)c1Cl` was tested. Which MIC did it give?
A: 25 µg/mL (≈ 39.9 µM)

Q: Which MIC does the source give for `CC(=O)c1c(C)cn(CC#CI)c1C` here?
A: 25 µg/mL (≈ 83 µM)

Q: How did the MIC turn out when `Cc1ccc(-c2nnn(CC(I)=C(I)I)n2)cc1` was run?
A: > 100 µg/mL

Q: How did the MIC turn out when `Clc1cc(Cl)cc(-c2nnn(CC#CI)n2)c1` was run?
A: 0.39 µg/mL (≈ 1.03 µM)

Q: Which MIC does the source give for `Cc1cncn1CC(I)=C(I)I` here?
A: 12.5 µg/mL (≈ 25 µM)

Q: How did the MIC turn out when `O=[N+]([O-])c1cn(CC#CI)c(Cl)c1Cl` was run?
A: 1.56 µg/mL (≈ 4.52 µM)

Q: Which MIC does the source give for `O=[N+]([O-])c1c[nH]c(Cl)c1Cl` here?
A: 25 µg/mL (≈ 138 µM)

Q: How did the MIC turn out when `Cc1nnn(CC#CI)n1` was run?
A: 0.78 µg/mL (≈ 3.14 µM)

Q: How did the MIC turn out when `O=C(c1ccccc1)c1cccn1CC(I)=C(I)I` was run?
A: 6.25 µg/mL (≈ 10.6 µM)

Q: `CC(C)(C)c1nnnn1CC#CI` was tested. Which MIC did it give?
A: 25 µg/mL (≈ 86.2 µM)

Q: How did the MIC turn out when `O=[N+]([O-])c1ncnn1CC(I)=C(I)I` was run?
A: 0.78 µg/mL (≈ 1.47 µM)

Q: How did the MIC turn out when `IC(I)=C(I)Cn1nnnc1Cc1ccccc1` was run?
A: > 25 µg/mL

Each compound was assayed on Candida albicans (assay: Antifungal activity against Candida albicans C-A-24 strain).
Assay type: functional

Q: Which MIC does the source give for `CC(=O)c1cccn1CC(I)=C(I)I` here?
A: 12.5 µg/mL (≈ 23.7 µM)

Q: For `CCCc1nnnn1CC#CI`, which MIC is on record?
A: 6.25 µg/mL (≈ 22.6 µM)

Q: With `CCc1nnnn1CC(I)=C(I)I` as the compound, how does the MIC read?
A: > 25 µg/mL

Q: Which MIC does the source give for `IC#CCn1ccnn1` here?
A: 3.13 µg/mL (≈ 13.4 µM)

Q: With `CCOC(=O)c1cn(CC(I)=C(I)I)c(Cl)c1Cl` as the compound, how does the MIC read?
A: 25 µg/mL (≈ 39.9 µM)

Q: How did the MIC turn out when `CC(=O)c1c(C)cn(CC#CI)c1C` was run?
A: 25 µg/mL (≈ 83 µM)

Q: With `Cc1ccc(-c2nnn(CC(I)=C(I)I)n2)cc1` as the compound, how does the MIC read?
A: > 100 µg/mL

Q: For `Clc1cc(Cl)cc(-c2nnn(CC#CI)n2)c1`, which MIC is on record?
A: 1.56 µg/mL (≈ 4.12 µM)

Q: With `Cc1cncn1CC(I)=C(I)I` as the compound, how does the MIC read?
A: 12.5 µg/mL (≈ 25 µM)

Q: Which MIC does the source give for `O=[N+]([O-])c1cn(CC#CI)c(Cl)c1Cl` here?
A: 0.78 µg/mL (≈ 2.26 µM)

Q: For `O=[N+]([O-])c1c[nH]c(Cl)c1Cl`, which MIC is on record?
A: 100 µg/mL (≈ 553 µM)

Q: How did the MIC turn out when `Cc1nnn(CC#CI)n1` was run?
A: 1.56 µg/mL (≈ 6.29 µM)

Q: For `O=C(c1ccccc1)c1cccn1CC(I)=C(I)I`, which MIC is on record?
A: 6.25 µg/mL (≈ 10.6 µM)

Q: How did the MIC turn out when `CC(C)(C)c1nnnn1CC#CI` was run?
A: 12.5 µg/mL (≈ 43.1 µM)

Q: Which MIC does the source give for `O=[N+]([O-])c1ncnn1CC(I)=C(I)I` here?
A: 12.5 µg/mL (≈ 23.5 µM)

Q: For `IC(I)=C(I)Cn1nnnc1Cc1ccccc1`, which MIC is on record?
A: > 25 µg/mL

What follows are compounds tested on Aspergillus fumigatus (assay: Antifungal activity against Aspergillus fumigatus Saito strain).
Assay type: functional

Q: How did the MIC turn out when `CC(=O)c1cccn1CC(I)=C(I)I` was run?
A: 12.5 µg/mL (≈ 23.7 µM)

Q: With `CCCc1nnnn1CC#CI` as the compound, how does the MIC read?
A: 3.13 µg/mL (≈ 11.3 µM)

Q: Which MIC does the source give for `CCc1nnnn1CC(I)=C(I)I` here?
A: 25 µg/mL (≈ 48.5 µM)

Q: How did the MIC turn out when `IC#CCn1ccnn1` was run?
A: 0.78 µg/mL (≈ 3.35 µM)

Q: `CCOC(=O)c1cn(CC(I)=C(I)I)c(Cl)c1Cl` was tested. Which MIC did it give?
A: 25 µg/mL (≈ 39.9 µM)

Q: How did the MIC turn out when `CC(=O)c1c(C)cn(CC#CI)c1C` was run?
A: 3.13 µg/mL (≈ 10.4 µM)

Q: How did the MIC turn out when `Cc1ccc(-c2nnn(CC(I)=C(I)I)n2)cc1` was run?
A: > 100 µg/mL

Q: For `Clc1cc(Cl)cc(-c2nnn(CC#CI)n2)c1`, which MIC is on record?
A: 1.56 µg/mL (≈ 4.12 µM)

Q: Which MIC does the source give for `Cc1cncn1CC(I)=C(I)I` here?
A: 3.13 µg/mL (≈ 6.26 µM)

Q: `O=[N+]([O-])c1cn(CC#CI)c(Cl)c1Cl` was tested. Which MIC did it give?
A: 0.39 µg/mL (≈ 1.13 µM)

Q: For `O=[N+]([O-])c1c[nH]c(Cl)c1Cl`, which MIC is on record?
A: 25 µg/mL (≈ 138 µM)

Q: With `Cc1nnn(CC#CI)n1` as the compound, how does the MIC read?
A: 0.78 µg/mL (≈ 3.14 µM)

Q: How did the MIC turn out when `O=C(c1ccccc1)c1cccn1CC(I)=C(I)I` was run?
A: 6.25 µg/mL (≈ 10.6 µM)

Q: With `CC(C)(C)c1nnnn1CC#CI` as the compound, how does the MIC read?
A: 6.25 µg/mL (≈ 21.5 µM)

Q: `O=[N+]([O-])c1ncnn1CC(I)=C(I)I` was tested. Which MIC did it give?
A: 0.39 µg/mL (≈ 0.733 µM)

Q: With `IC(I)=C(I)Cn1nnnc1Cc1ccccc1` as the compound, how does the MIC read?
A: 25 µg/mL (≈ 43.3 µM)

What follows are compounds tested on Trichophyton benhamiae (assay: Antifungal activity towards Trichophyton mentagrophytes 530324 strain).
Assay type: functional, Arthroderma benhamiae

Q: For `CC(=O)c1cccn1CC(I)=C(I)I`, which MIC is on record?
A: 1.56 µg/mL (≈ 2.96 µM)

Q: For `CCCc1nnnn1CC#CI`, which MIC is on record?
A: 0.78 µg/mL (≈ 2.83 µM)

Q: For `CCc1nnnn1CC(I)=C(I)I`, which MIC is on record?
A: 1.56 µg/mL (≈ 3.02 µM)

Q: Which MIC does the source give for `IC#CCn1ccnn1` here?
A: 0.78 µg/mL (≈ 3.35 µM)

Q: For `CCOC(=O)c1cn(CC(I)=C(I)I)c(Cl)c1Cl`, which MIC is on record?
A: 3.13 µg/mL (≈ 5 µM)

Q: `CC(=O)c1c(C)cn(CC#CI)c1C` was tested. Which MIC did it give?
A: 1.56 µg/mL (≈ 5.18 µM)

Q: How did the MIC turn out when `Cc1ccc(-c2nnn(CC(I)=C(I)I)n2)cc1` was run?
A: > 100 µg/mL

Q: For `Clc1cc(Cl)cc(-c2nnn(CC#CI)n2)c1`, which MIC is on record?
A: 0.1 µg/mL (≈ 0.264 µM)

Q: With `Cc1cncn1CC(I)=C(I)I` as the compound, how does the MIC read?
A: 1.56 µg/mL (≈ 3.12 µM)

Q: How did the MIC turn out when `O=[N+]([O-])c1cn(CC#CI)c(Cl)c1Cl` was run?
A: 0.1 µg/mL (≈ 0.29 µM)

Q: With `O=[N+]([O-])c1c[nH]c(Cl)c1Cl` as the compound, how does the MIC read?
A: 6.25 µg/mL (≈ 34.5 µM)

Q: For `Cc1nnn(CC#CI)n1`, which MIC is on record?
A: 0.78 µg/mL (≈ 3.14 µM)

Q: Which MIC does the source give for `O=C(c1ccccc1)c1cccn1CC(I)=C(I)I` here?
A: 1.56 µg/mL (≈ 2.65 µM)

Q: Which MIC does the source give for `CC(C)(C)c1nnnn1CC#CI` here?
A: 3.13 µg/mL (≈ 10.8 µM)

Q: `O=[N+]([O-])c1ncnn1CC(I)=C(I)I` was tested. Which MIC did it give?
A: 0.39 µg/mL (≈ 0.733 µM)

Q: For `IC(I)=C(I)Cn1nnnc1Cc1ccccc1`, which MIC is on record?
A: 0.1 µg/mL (≈ 0.173 µM)

The compounds below were run on Trichophyton interdigitale (assay: Antifungal activity towards Trichophyton interdigitale).
Assay type: functional

Q: For `CC(=O)c1cccn1CC(I)=C(I)I`, which MIC is on record?
A: 0.39 µg/mL (≈ 0.74 µM)

Q: `CCCc1nnnn1CC#CI` was tested. Which MIC did it give?
A: 1.56 µg/mL (≈ 5.65 µM)

Q: With `CCc1nnnn1CC(I)=C(I)I` as the compound, how does the MIC read?
A: 3.13 µg/mL (≈ 6.07 µM)

Q: Which MIC does the source give for `IC#CCn1ccnn1` here?
A: 0.78 µg/mL (≈ 3.35 µM)

Q: For `CCOC(=O)c1cn(CC(I)=C(I)I)c(Cl)c1Cl`, which MIC is on record?
A: 3.13 µg/mL (≈ 5 µM)

Q: For `CC(=O)c1c(C)cn(CC#CI)c1C`, which MIC is on record?
A: 6.25 µg/mL (≈ 20.8 µM)

Q: For `Cc1ccc(-c2nnn(CC(I)=C(I)I)n2)cc1`, which MIC is on record?
A: > 100 µg/mL

Q: With `Clc1cc(Cl)cc(-c2nnn(CC#CI)n2)c1` as the compound, how does the MIC read?
A: 0.1 µg/mL (≈ 0.264 µM)

Q: `Cc1cncn1CC(I)=C(I)I` was tested. Which MIC did it give?
A: 1.56 µg/mL (≈ 3.12 µM)

Q: How did the MIC turn out when `O=[N+]([O-])c1cn(CC#CI)c(Cl)c1Cl` was run?
A: 0.39 µg/mL (≈ 1.13 µM)

Q: `O=[N+]([O-])c1c[nH]c(Cl)c1Cl` was tested. Which MIC did it give?
A: 3.13 µg/mL (≈ 17.3 µM)

Q: `Cc1nnn(CC#CI)n1` was tested. Which MIC did it give?
A: 0.78 µg/mL (≈ 3.14 µM)

Q: `O=C(c1ccccc1)c1cccn1CC(I)=C(I)I` was tested. Which MIC did it give?
A: 3.13 µg/mL (≈ 5.31 µM)

Q: For `CC(C)(C)c1nnnn1CC#CI`, which MIC is on record?
A: 0.78 µg/mL (≈ 2.69 µM)

Q: `O=[N+]([O-])c1ncnn1CC(I)=C(I)I` was tested. Which MIC did it give?
A: 0.2 µg/mL (≈ 0.376 µM)

Q: For `IC(I)=C(I)Cn1nnnc1Cc1ccccc1`, which MIC is on record?
A: 0.1 µg/mL (≈ 0.173 µM)
